Measured values from patent publication US8304447B2, “2-acylaminopropoanol-type glucosylceramide synthase inhibitors” (Genzyme Corporation, priority 2007, dated 2012).
Read-outs that look alike come from different tables or passages of the source.

Tested on: GM3
Assay: GM3 Elisa assay
Type: cell-based
Conditions: B16-FO cells, read-out: IC50_uM_Mean
Summary of the method: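 Cellular GM3 ELISA: fixed cells probed with monoclonal anti-GM3 (NeuAc), HRP-conjugated anti-IgM and fluorogenic Quantablu substrate, read at Ex 325/Em 420. Cells were B16-FO, treated 2 days after a 6 h attachment on collagen-coated wells.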

[1] = 48 h, Table 2, 2 days incubation
[2] = 48 h, Table 1, 2 days incubation

Compound	IC50 (Table 3 (IC 50 Values)) [nM]	other results
O=C1CCC(=O)N1[C@H](CN1CCCC1)[C@H](O)c1ccc2c(c1)OCCO2 [Compound 670]	3000 to 10000	
O=C(CCCCCNC(=O)C(F)(F)F)N[C@H](CN1CCCC1)[C@H](O)c1ccc2c(c1)OCCO2 [Compound 481]	3000 to 10000	
O=C(Cc1ccc(OC(F)(F)F)cc1)N[C@H](CN1CCOCC1)[C@H](O)c1ccc2c(c1)OCCO2 [Compound 258]		IC50 [1]: 3000 to 10000 nM
COCCc1ccc([C@@H](O)[C@@H](CN2CCCC2)NC(=O)CCCCC(=O)c2ccc(OC)cc2)cc1 [Compound 357]	100 to 1000	
COC1CCC(OCCC(=O)N[C@H](CN2C(C)CCCC2C)[C@@H](O)c2ccc3c(c2)OCCO3)CC1 (stereo partly shown) [Compound 598]	3000 to 10000	
O=C(Cc1ccc(-c2cccnc2)cc1)N[C@H](CN1CCCC1)[C@H](O)c1ccc2c(c1)OCCO2 [Compound 47, N-((1R,2R)-1-(2,3-dihydrobenzo[β][1,4]dioxin-6-yl)-1-hydroxy-3-(pyrrolidin-1-yl)propan-2-yl)-2-(4-(pyridin-3-yl)phenyl)acetamide]		IC50 [2]: 100 to 1000 nM
CCCCCCOc1ccc([C@@H](O)[C@@H](CN2CCCC2)NC(=O)CCOc2ccc(OC)cc2)cc1 [Compound 413]	≤ 100	
COc1ccc(CCCC(=O)N[C@H](CN2CCCC2)[C@H](O)c2ccc(OC)cc2)cc1 [Compound 263]		IC50 [1]: 100 to 1000 nM
COc1ccc(C(=O)CCCCC(=O)N[C@H](CN2CCCC2)[C@H](O)c2ccc(OCCCCF)cc2)cc1 [Compound 435]	≤ 100	
COc1ccc(C(=O)CCCC(=O)N[C@H](CN2CCCC2)[C@H](O)c2ccc(Cl)s2)cc1 [Compound 359]	100 to 1000	
O=C(N[C@H](CN1CCCC1)[C@H](O)c1ccc2c(c1)OCCO2)C1(C(=O)c2ccc(F)cc2)CC1 [Compound 638]	3000 to 10000	
CCCCC(=O)CCCCCCC(=O)N[C@H](CN1CCCC1)[C@H](O)c1ccc2c(c1)OCCO2 [Compound 663]	100 to 1000	
COc1ccc(OCCC(=O)N[C@H](CN2CC(F)(F)C2)[C@H](O)c2ccc3c(c2)OCCO3)cc1 [Compound 622]	3000 to 10000	
COc1ccc(OCCC(=O)N[C@H](CN2CC[C@@H](F)C2)[C@H](O)c2ccc3c(c2)OCCO3)cc1 [Compound 509]	100 to 1000	
COc1ccc(C(=O)CCCCCC(=O)N[C@H](CN2CCCC2(C)C)[C@H](O)c2ccc3c(c2)OCCO3)cc1 [Compound 552]	1000 to 3000	
O=C(N[C@H](CN1CCCC1)[C@H](O)c1ccc2c(c1)OCCO2)c1cc2ccccc2s1 [Compound 5, N-((1R,2R)-1-(2,3-dihydrobenzo[β][1,4]dioxin-6-yl)-1-hydroxy-3-(pyrrolidin-1-yl)propan-2-yl)benzo[b]thiophene-2-carboxamide]		IC50 [2]: 100 to 1000 nM
COCCOc1ccc(C(=O)CCCC(=O)N[C@H](CN2CC[C@H](O)C2)[C@H](O)c2ccc(OCCCCF)cc2)cc1 [Compound 457]	≤ 100	
COCCc1ccc(OCCC(=O)N[C@H](CN2CCCC2)[C@H](O)c2ccc3c(c2)OCCO3)cc1 [Compound 202, N-((1R, R)-1-(2,3-dihydrobenzo[β][1,4]dioxin-6-yl)-1-hydroxy-3-(pyrrolidin-1-yl)propan-2-yl)-3-(4-(2-methoxyethyl)phenoxy)propanamide (2R, R)-2,3-dihydroxysuccinate]		IC50 [2]: 100 to 1000 nM
COc1ccc(C(=O)CCCCCC(=O)N[C@@H](Cc2ccccc2)CN2CCCC2)cc1 [Compound 541]	3000 to 10000	
Cc1noc(CCCCC(=O)NC(CN2CCCC2)C(O)c2ccc3c(c2)OCCO3)n1 (stereo not shown) [Compound 652]	3000 to 10000	
COc1ccc(C(=O)CCCC(=O)N[C@H](CN2CC[C@H](O)C2)[C@H](O)c2ccc(OCCCCF)cc2)cc1 [Compound 500]	≤ 100	
CCCCOc1ccc([C@@H](O)[C@@H](CN2CC[C@@H](F)C2)NC(=O)CCCCCOCCF)cc1 [Compound 660]	100 to 1000	
